Experiments:
[1] = tested on: potato blight (Phytophthora infestans); format: in vivo; conditions: Solanum tuberosum Bintje, infection 48 h after treatment, read after 6 days, 3 repeats, confidence interval in brackets; for ED50 (confidence interval): effective dose providing 50% control; for ED70 (confidence interval): effective dose providing 70% control; for ED90 (confidence interval): effective dose providing 90% control
[2] = tested on: vine downy mildew (Plasmopara viticola); conditions: in vivo

Structure (SMILES) | ED50 (confidence interval) [1] | ED70 (confidence interval) [1] | ED90 (confidence interval) [1] | ED50 (confidence interval) [2] | ED70 (confidence interval) [2]
O=C(NCc1ncc(C(F)(F)F)cc1Cl)c1c(Cl)cccc1Cl [Compound A, 2,6-dichloro-N-{[3-chloro-5-(trifluoromethyl)-2-pyridinyl]methyl}benzamide] | 19.9 (12-33) mg/l | 43.5 (24.5-77.2) mg/l | 151.2 (61.5-371.8) mg/l | 6.6 (4-10.9) mg/l | 12.5 (8-19.6) mg/l
Cc1ccc(C(C)NC(=O)[C@@H](NC(=O)OC(C)C)C(C)C)cc1 (stereo partly shown) [Compound B, iprovalicarb] | 27.8 (18.3-42.2) mg/l | 69.3 (43.7-109.9) mg/l | 296.6 (136.2-646) mg/l | 7.3 (4.9-11) mg/l | 17.5 (11.8-25.9) mg/l
